From patent US4419351A, “Platinum-dioxopyrimidine complexes” (priority 1978, dated 1983)
Like-named read-outs stand apart in the source and are kept apart here.

Columns and labels:
[1] = tested on: ascites Sarcoma-180 tumor; assay: chemotherapeutic activity vs ascites Sarcoma-180 tumor, single i.p. injection on day 1 (Table 2 survey); format: in vivo, Swiss White mice; conditions: for # of cures / Dose of Best % ILS / Toxic Level / Best % ILS (increase in lifespan): carrier saline; for Dose of Best % ILS / Toxic Level / Best % ILS (increase in lifespan): single i.p. day 1; for Toxic Level: 2 or more of 6 animals died within 8 days; for Best % ILS (increase in lifespan): max 100%
Description: The chemotherapeutic activities of the "Platinum Blue" complexes were determined using the ascites Sarcoma-180 tumor in Swiss White mice. The protocols for these tests were as follows: Random bred female Swiss White mice (Spartan Laboratory, Williamston, Mich.) of 18-20 grams weight were randomized in groups of six. The ascites cells were removed from the peritoneal cavities of animals with approximately 10 day old ascites tumors. The cells were washed several times with 0.85% saline and spun down each time in a refrigerated centrifuge for 3-5 minutes at 750 r.p.m. After the blood was removed from the cells, they were diluted with 0.85% saline solution and counted in a hemocytometer. A final dilution of 2×10^7 cells/ml. in saline was made. Each animal received 0.2 ml. of this suspension (4×10^6 cells/animals). This was injected intraperitoneally on day 0 of each test. Two groups (12 animals) were kept as negative controls, and the test was terminated at twice the mean day of death of the negative controls. […] All test compounds were injected i.p. on day one as a 0.5 ml. volume of the compound in a carrier of water, physiologic saline or arachis oil (peanut oil). Soluble compounds were always tested in appropriate solutions, the insoluble ones as a slurry. The slurry was sonicated for periods of up to 10 minutes to insure uniformity of dispersion just prior to injections. […] Retests were performed if a sufficient level of drug toxicity at the highest dose was not reached. Animals still alive at the completion of the tests were considered to have died on the day of evaluation. Animals showing no abdominal distention (by palpation, or visibly) on this day were considered cured.
The compounds tested were usually freshly prepared and purified. The compounds kept for further testing were stored in a vacuum dessicator in a dark refrigerator to prevent deterioration. […] Toxic levels are considered to be that concentration where 2 or more of the 6 animals at the dose died within 8 days of injection.
The letter A indicates the "blue" or first isolated precipitate, the letter B, the "green" or second precipitate.

[2] = tested on: ADJ/PC6A Tumor; assay: effects on ADJ/PC6A tumor (Table 7); format: in vivo, Female, C^- Mice; conditions: i.p., single dose, 24 days after tumor implant
[3] = tested on: Mice Kidneys (proximal convoluted tubules); parameters: species or system female Swiss White mice; conditions: mouse, in vivo
Source text: The protocols for these tests were as follows: Each group contained six female Swiss White mice; the tumored animals were given a transplant of a solid Sarcoma-180 tumor on day 0 and treatment was initiated on day 1; the animals were sacrificed on day 10 and the kidneys removed and prepared for histological evaluation; control groups were non-tumored, non-treated animals, and tumored, non-treated animals. Multiple sections of each kidney were examined. […] The saturation concentration cannot be specified other than an estimate of less than 1 mg/100 ml. A very brief summary of the results are compiled in Table 8. The histopathologic degenerative changes are dose dependent in all cases.

[4] = tested on: MCDV 12 (Rauscher Leukemia, Virus Induced); assay: effects on MCDV 12 (Rauscher Leukemia, virus induced) (Table 5); format: in vivo, BALB/C Mice; conditions: for Survivors: at 200% ILS
Source text: (§1) Tables 4-7, respectively, tabulate the results achieved when employing the complexes of the invention against the L1210, MCDV 12, (Rauscher Leukemia, virus-induced), Ehrlich Ascites and the ADJ PC6A (myeloma) tumors.
^a All experiments were terminated arbitrarily at 200% ILS and
survivors tabulated at that time. All therapy was started on third day
after tumor transplant. Untreated tumor controls died 10-11 days after
transplant. In some instances, efforts to reproduce above results have
shown considerable variability.

[5] = tested on: L1210 Tumor; assay: effects on L1210 tumor (Table 4); format: in vivo, BDF Mice; conditions: for Survivors: at 200% ILS
Source text: as §1
^a All experiments were terminated arbitrarily at 200% ILS and any
survivors were tabulated at that time. All therapy was started on the
third day after tumor transplant. Untreated tumor controls died 10-11 day
after transplant. In some instances efforts to reproduce above results
have shown considerable variability.

[6] = tested on: Escherichia coli-wild type; assay: anti-microbial activity, growth in test tube cultures (Table 9); format: cell-based
Description: The following procedure was utilized to test the anti-microbal activity of the platinum complexes. The tests were performed with Escherichia coli-wild type, growing in test tube cultures. Using standardized techniques, growth in the medium was examined after the incorporation of the various test chemicals, using the increase in the optical density of the medium as against time. The bacteria were also periodically examined under a phase contrast microscope for evidence of elongation (filmentation).

[7] = tested on: Ehrlich Ascites Tumor; assay: survival times of mice bearing the Ehrlich ascites tumor (Table 6); format: in vivo; conditions: 7 mg/kg; for Mean Survival Time (+ S.D.): single i.p. day 3
Source text: as §1
^a 6 mice/group; each mouse received 10^7 ascites tumor cells on
day 0; treatment was as a single i. p. injection on day 3.

[8] = tested on: ascites Sarcoma-180 tumor; assay: schedule dependency tests of antitumor activity (Table 3); format: in vivo, Swiss White mice; conditions: for # of cures / Best % ILS / Dose of Best % ILS: saline
Description: The chemotherapeutic activities of the "Platinum Blue" complexes were determined using the ascites Sarcoma-180 tumor in Swiss White mice. The protocols for these tests were as follows: Random bred female Swiss White mice (Spartan Laboratory, Williamston, Mich.) of 18-20 grams weight were randomized in groups of six. The ascites cells were removed from the peritoneal cavities of animals with approximately 10 day old ascites tumors. The cells were washed several times with 0.85% saline and spun down each time in a refrigerated centrifuge for 3-5 minutes at 750 r.p.m. After the blood was removed from the cells, they were diluted with 0.85% saline solution and counted in a hemocytometer. A final dilution of 2×10^7 cells/ml. in saline was made. Each animal received 0.2 ml. of this suspension (4×10^6 cells/animals). This was injected intraperitoneally on day 0 of each test. Two groups (12 animals) were kept as negative controls, and the test was terminated at twice the mean day of death of the negative controls. […] Soluble compounds were always tested in appropriate solutions, the insoluble ones as a slurry. The slurry was sonicated for periods of up to 10 minutes to insure uniformity of dispersion just prior to injections. […] Retests were performed if a sufficient level of drug toxicity at the highest dose was not reached. Animals still alive at the completion of the tests were considered to have died on the day of evaluation. Animals showing no abdominal distention (by palpation, or visibly) on this day were considered cured.

CCOC(=O)c1c[nH]c(=O)[nH]c1=O [5-carbethoxyuracil Class IA]
# of cures ([1]; 6 animals per test): 0
Dose of Best % ILS [1]: 200 mg/kg
Toxic Level [1]: 200 mg/kg
Best % ILS (increase in lifespan) [1]: 56%
ID 90 (90% Inhibition) [2]: 250 mg/kg
LD50 [2]: 670 mg/kg

[Cl][Pt+2][Cl].[NH-]C1CCCC1.[NH-]C1CCCC1 [cis-dichloro(bis)cyclopentylamineplatinum(II)]
histopathologic degenerative changes at higher dose levels [3]: generalized vacuolar (hydropic) degeneration of the proximal convoluted tubules
saturation concentration in saline: less than 1 mg/100 ml

CC1CNC(=O)NC1=O (stereo not drawn) [5,6-dihydrothymine Class IA]
# of cures ([1]; 6 animals per test): 2
Dose of Best % ILS [1]: 200 mg/kg
Toxic Level [1]: 400 mg/kg
Best % ILS (increase in lifespan) [1]: 87%
% ILS ([4]; 30.63 mg/kg q3 hr × 8): 75%
Survivors ([4]; 30.63 mg/kg q3 hr × 8): 1/3
% ILS ([4]; 50 mg/kg qid × 5): 157%
Survivors ([4]; 50 mg/kg qid × 5): 2/3
% ILS ([4]; 61.25 mg/kg q3 hr × 6): 121%
Survivors ([4]; 61.25 mg/kg q3 hr × 6): 2/3
% ILS ([4]; 100 mg/kg qid × 5): 0%
Survivors ([4]; 100 mg/kg qid × 5): 0/3
ID 90 (90% Inhibition) [2]: 25 mg/kg
LD50 [2]: 135 mg/kg
% ILS ([5]; 30.63 mg/kg q3 hr × 8): 30%
Survivors ([5]; 30.63 mg/kg q3 hr × 8): 0/3
% ILS ([5]; 50 mg/kg qid × 5): 36%
Survivors ([5]; 50 mg/kg qid × 5): 0/3
% ILS ([5]; 61.25 mg/kg q3 hr × 8): 0%
Survivors ([5]; 61.25 mg/kg q3 hr × 8): 0/3
% ILS ([5]; 100 mg/kg qid × 5): 45%
Survivors ([5]; 100 mg/kg qid × 5): 0/3

CC#N.CC#N.[Cl][Pt][Cl] [Pt(CH3 CN)2 Cl2, reference compound]
# of cures ([1]; 6 animals per test): 1
Dose of Best % ILS [1]: 25 mg/kg
Toxic Level [1]: 50 mg/kg
Best % ILS (increase in lifespan) [1]: 83%
gross hepatic damage ([1]; in words): exceptions

O=c1[nH]cc(CO)c(=O)[nH]1 [5-hydroxymethyluracil Class IA]
# of cures ([1]; 6 animals per test): 2
Dose of Best % ILS [1]: 100 mg/kg
Toxic Level [1]: 200 mg/kg
Best % ILS (increase in lifespan) [1]: 98%
ID 90 (90% Inhibition) [2]: 42 mg/kg
LD50 [2]: 40 mg/kg

N.N.[Cl][Pt][Cl] [cis-dichlorodiammineplatinum(II)]
histopathologic degenerative changes at higher dose levels [3]: generalized vacuolar (hydropic) degeneration of the proximal convoluted tubules
Observed Renal Histopathological Changes ([3]; 0.5 mg/kg): normal
Observed Renal Histopathological Changes ([3]; 1 mg/kg): normal
Observed Renal Histopathological Changes ([3]; 2 mg/kg): mild degenerative changes (cloudy swelling)
Observed Renal Histopathological Changes ([3]; 3 mg/kg): mild degenerative changes (cloudy swelling)
Observed Renal Histopathological Changes ([3]; 7 mg/kg): extensive degenerative changes (hydropic degeneration)
Optical Density of Bacterial Cultures ([6]; 7 ppm, 1:45 p.m., first run): .74
Optical Density of Bacterial Cultures ([6]; 7 ppm, 2:45 p.m., first run): .78
Optical Density of Bacterial Cultures ([6]; 7 ppm, 9:30 a.m., first run): .19
Optical Density of Bacterial Cultures ([6]; 7 ppm, 10:45 a.m., first run): .31
Optical Density of Bacterial Cultures ([6]; 7 ppm, 11:45 a.m., first run): .44
Optical Density of Bacterial Cultures ([6]; 7 ppm, 12:45 p.m., first run): .62
Optical Density of Bacterial Cultures ([6]; 10 ppm, 1:00 p.m., second run): .49
Optical Density of Bacterial Cultures ([6]; 10 ppm, 2:00 p.m., second run): .55
Optical Density of Bacterial Cultures ([6]; 10 ppm, 3:20 p.m., second run): .60
Optical Density of Bacterial Cultures ([6]; 10 ppm, 9:30 a.m., second run): .12
Optical Density of Bacterial Cultures ([6]; 10 ppm, 11:00 a.m., second run): .26
Optical Density of Bacterial Cultures ([6]; 10 ppm, 12:00 p.m., second run): .37
% Increase in Mean Survival Time ([7]; first experiment): 307%
Mean Survival Time (+ S.D.) ([7]; first experiment (control 8.3 days)): 33.8 ± 16.9 days
animals that survived > 60 days ([7]; first experiment, 6 mice/group): 2 animals
% Increase in Mean Survival Time ([7]; second experiment): 194%
Mean Survival Time (+ S.D.) ([7]; second experiment (control 10.1 days)): 29.7 ± 4.2 days
Dose of Best % ILS [1]: 7 mg/kg
Best % ILS (increase in lifespan) [1]: 49 (S.D ± 2.82) %
# of cures ([1]; positive control, of 12 animals): 1
% ILS ([4]; 5 mg/kg × 1): 146%
Survivors ([4]; 5 mg/kg × 1): 2/3
% ILS ([4]; 8 mg/kg × 1): 62%
Survivors ([4]; 8 mg/kg × 1): 0/2
% ILS ([4]; 16 mg/kg × 1): -15%
Survivors ([4]; 16 mg/kg × 1): 0/3
# of cures ([8]; day 1, 1 injection): 1
Best % ILS ([8]; day 1, 1 injection): 42 (S.D. ± 3.1) %
Dose of Best % ILS ([8]; day 1, 1 injection): 7 mg/kg
Best % ILS ([8]; every 5th day, 5 injections): 83%
Dose of Best % ILS ([8]; every 5th day, 5 injections): 5 mg/kg
# of cures ([8]; every 5th day, 5 injections, 6 animals per test): 3
Best % ILS ([8]; every 3 hrs., 8 injections): 86%
Dose of Best % ILS ([8]; every 3 hrs., 8 injections): 1 mg/kg
# of cures ([8]; every 3 hrs., 8 injections, 6 animals per test): 5
animals died within 9 days of start (remainder cured) ([8]; every day, 5 injections, 3 mg/kg): Three
Best % ILS ([8]; every day, 5 injections): 19%
Dose of Best % ILS ([8]; every day, 5 injections): 3 mg/kg
# of cures ([8]; every day, 5 injections, 6 animals per test): 3
ID 90 (90% Inhibition) [2]: 1.6 mg/kg

O=c1cc(Cl)[nH]c(=O)[nH]1 [6-chlorouracil Class IA]
# of cures ([1]; 6 animals per test): 3
Dose of Best % ILS [1]: 200 mg/kg
Toxic Level [1]: > 200 mg/kg
Best % ILS (increase in lifespan) [1]: 88%
ID 90 (90% Inhibition) [2]: 190 mg/kg
LD50 [2]: 200 mg/kg
